Test results as given in article PMC6135860 (Neuropsychopharmacology, 2018).
Like-named read-outs stand apart in the source and are kept apart here.

Tests used:
[1] = molecular target: PDE4 binding sites in wild-type mouse brain membranes; assay: [3H]-rolipram radioligand binding to brain membranes; settings: for Ki: wild-type
Procedure: (§1) Mice were killed by decapitation, and the brains were immediately dissected on ice and homogenized in binding buffer using a Polytron homogenizer (Brinkman Instruments, Westbury, NY). The membrane fraction of the homogenate was obtained by centrifugation at 15,000 × g for 15 min, and resuspension of the pellet in the binding buffer.
(§2) Mice were killed by decapitation, and the brains were immediately dissected on ice and homogenized in binding buffer (50 mM Tris-HCl, 5 mM MgCl2, pH 7.5) using a Polytron homogenizer (Brinkman Instruments, Westbury, NY). The membrane fraction of the homogenate was obtained by centrifugation at 15,000 g for 15 min, and resuspension of the pellet in the binding buffer^29.
(§3) At the end of the incubation, reactions were stopped by adding 5 ml of the ice-cold binding buffer and rapid vacuum filtration through glass fiber filters that had been soaked in 0.3% polyethyleneimine. The filters were then washed twice with 5 ml of the ice-cold binding buffer, and discs of filter paper were collected for measurement of radioactivity by liquid scintillation counting.

[2] = molecular target: PDE4 binding sites in humanized PDE4D mouse brain membranes; assay: as above; settings: for Ki: hPDE4D
Procedure: as §1, §2, §3

wild-type mice [3] = assay: Y-maze spontaneous alternation test; format: in vivo, mouse
Procedure: (§4) The test consists of a single 5 min trial, in which the mouse was allowed to explore all three arms of the Y-maze [31]. Spontaneous alternation (%) was defined as consecutive entries in three different arms, divided by the number of possible alternations (total arm entries minus 2).
(§5) Y-maze spontaneous alternation test. The Y-maze apparatus made of matt blue Plexiglas had three identical arms (L 40 cm, W 5 cm, H 15 cm) placed at 120° from each other. The test consisted of a single 5 min trial, in which the mouse was allowed to explore all three arms of the Y-maze. The start arm was varied between animals to avoid placement bias. Spontaneous Alternation (%) was defined as consecutive entries in 3 different arms, divided by the number of possible alternations (total arm entries minus 2). Mice with less than 8 arm entries during the 5-min trial were excluded from the analysis.

humanized PDE4D mice [4] = assay: Y-maze spontaneous alternation test; format: in vivo, mouse
Procedure: as §4, §5

wild-type mice [5] = assay: Novel object recognition, 24 h inter-trial interval; format: in vivo, mouse
Procedure: (§6) The novel object recognition test was performed as described elsewhere [32, 33]. Briefly, the task procedure consists of three phases: habituation phase on day 1 for 10 min, training (T1) phase on day 2 for 5 min, and testing (T2) phase on day 3 for 5 min. The duration each animal spent exploring the objects was recorded. Time spent exploring the identical objects in T1 was recorded as a1 and a2; time spent exploring the familiar and the novel objects in T2 was recorded as “a” and “b”, respectively. The following variables were calculated: e1 = a1 + a2, e2 = a + b, the relative discrimination index d2 = (b–a)/e2.
Novel object recognition. Mice were handled for 3-5 min for 5 days in a row. The novel object recognition test was performed in a Plexiglas open field box (L30 cm, W50 cm, H40 cm) as described elsewhere^64,65. Briefly, the task procedure consists of three phases: habituation, training (T1), and testing (T2). […] The duration each animal spent exploring the objects was recorded. Time spent exploring the identical objects in T1 was recorded as a1 and a2; time spent exploring the familiar and the novel objects in T2 was recorded as ‘a’ and ‘b’, respectively. The following variables were calculated: e1 = a1 + a2, e2 = a + b, the relative discrimination index d2 = (b – a)/e2.

humanized PDE4D mice [6] = assay: as above; format: in vivo, mouse
Procedure: as §6
Novel object recognition. Mice were handled for 3-5 min for 5 days in a row. The novel object recognition test was performed in a Plexiglas open field box (L30 cm, W50 cm, H40 cm) as described elsewhere^64,65. Briefly, the task procedure consists of three phases: habituation, training (T1), and testing (T2). In the habituation phase (day 1), each animal is allowed to freely explore the apparatus for 10 min; then the animal is returned to its home cage. During the training phase (day 2), a single animal is placed in the center of the open field containing two identical objects located on the diagonal of the field, and allowed to explore for 5 min. After a retention interval after T1 of 24 h (long-term recall) or 1 h (scopolamine-impairment model), the animal was subjected to the T2 testing phase for 5 min, during which one familiar object and one novel object were presented. The arena and objects were thoroughly wiped with 70% ethanol after each trial to avoid the presence of any olfactory cues. The animals were considered to be exploring the object when directing their nose to the object at a distance of no more than 2 cm and/or touching or sniffing the object. The duration each animal spent exploring the objects was recorded. Time spent exploring the identical objects in T1 was recorded as a1 and a2; time spent exploring the familiar and the novel objects in T2 was recorded as ‘a’ and ‘b’, respectively. The following variables were calculated: e1 = a1 + a2, e2 = a + b, the relative discrimination index d2 = (b – a)/e2.

humanized PDE4D mice [7] = settings: 1 mg/kg IP, hPDE4D mice
wild-type mice [8] = assay: Ketamine/xylazine anesthesia duration (surrogate of emesis); settings: 1 mg/kg IP
humanized PDE4D mice [9] = assay: Scopolamine-induced memory impairment in novel object recognition, 1 h inter-trial interval; format: in vivo, mouse; settings: scopolamine 0.1 mg/kg IP 30 min prior to training
Procedure: The novel object recognition test was performed as described elsewhere. […] The duration each animal spent exploring the objects was recorded. Time spent exploring the identical objects in T1 was recorded as a1 and a2; time spent exploring the familiar and the novel objects in T2 was recorded as “a” and “b”, respectively. The following variables were calculated: e1 = a1 + a2, e2 = a + b, the relative discrimination index d2 = (b–a)/e2.
For the scopolamine-induced memory impairment models, a single dose of scopolamine (0.1 mg/kg, IP) was administered 30 min before the training session of the NOR. Animals treated with H-89 or vehicle were implanted with 26-gauge guide cannula unilaterally (AP −0.2 mm from Bregma, ML +1 mm from the midline, DV−2mm from skull surface) and rested for a week before any tests.
Novel object recognition. Mice were handled for 3-5 min for 5 days in a row. The novel object recognition test was performed in a Plexiglas open field box (L30 cm, W50 cm, H40 cm) as described elsewhere^64,65. Briefly, the task procedure consists of three phases: habituation, training (T1), and testing (T2). In the habituation phase (day 1), each animal is allowed to freely explore the apparatus for 10 min; then the animal is returned to its home cage. During the training phase (day 2), a single animal is placed in the center of the open field containing two identical objects located on the diagonal of the field, and allowed to explore for 5 min. After a retention interval after T1 of 24 h (long-term recall) or 1 h (scopolamine-impairment model), the animal was subjected to the T2 testing phase for 5 min, during which one familiar object and one novel object were presented. […] The duration each animal spent exploring the objects was recorded. Time spent exploring the identical objects in T1 was recorded as a1 and a2; time spent exploring the familiar and the novel objects in T2 was recorded as ‘a’ and ‘b’, respectively. The following variables were calculated: e1 = a1 + a2, e2 = a + b, the relative discrimination index d2 = (b – a)/e2.

[10] = inhibition of 2 nM [3H]-rolipram binding, read-out: One-site Ki
[11] = inhibition of [3H]-rolipram binding, read-out: Two-site Ki1
[12] = inhibition of [3H]-rolipram binding, read-out: Two-site Ki2
[13] = H-89 1 µg i.c.v. followed by BPN14770 0.03 mg/kg PO, hPDE4D mice

Structure (SMILES): COc1ccc(C2CNC(=O)C2)cc1OC1CCCC1 (centres unmarked) [[^3H]-rolipram]
- Kd ([1]; wild-type mouse brain membranes, read-out: Kd of [3H]-rolipram saturation binding): 3.84 nM
- Kd ([2]; humanized PDE4D mouse brain membranes, read-out: Kd of [3H]-rolipram saturation binding): 3.72 nM

Structure (SMILES): COc1ccc(C2CNC(=O)C2)cc1OC1CCCC1 (centres unmarked) [Rolipram]
- Ki [1, 10]: 1.99 ± 0.11 nM
- Ki [1, 11]: 0.75 ± 0.33 nM
- Ki [1, 12]: 34.1 ± 26.8 nM
- Ki [2, 10]: 1.66 ± 0.07 nM
- Ki [2, 11]: 0.39 ± 0.07 nM
- Ki [2, 12]: 6.1 ± 0.79 nM
- MED in Y-maze (wild-type mice [3]): 0.1 mg/kg IP
- MED in Y-maze (humanized PDE4D mice [4]; humanized PDE4D mice): 0.1 mg/kg IP
- MED in NOR (wild-type mice [5]): 0.1 mg/kg IP
- MED in NOR (humanized PDE4D mice [6]; humanized PDE4D mice, 24 h inter-trial interval): 0.1 mg/kg IP
- effect on ketamine/xylazine anesthesia duration (humanized PDE4D mice [7]): significantly reduced the anesthesia duration
- effect on ketamine/xylazine anesthesia duration (wild-type mice [8]): significantly reduced the anesthesia duration

Structure (SMILES): O=S(=O)(NCCNC/C=C/c1ccc(Br)cc1)c1cccc2cnccc12 [H-89, reference compound]
- effect on memory benefit of BPN14770 in Y-maze (humanized PDE4D mice [4]; [13]): significantly antagonized the effect of BPN14770 on memory
- effect on memory benefit of BPN14770 in NOR (humanized PDE4D mice [6]; [13]): significantly antagonized the effect of BPN14770 on memory

Structure (SMILES): CN1[C@@H]2C[C@@H](OC(=O)[C@H](CO)c3ccccc3)C[C@H]1[C@@H]1O[C@@H]12 [scopolamine, reference compound]
- effect on short-term memory in NOR (humanized PDE4D mice [9]): abolished short-term memory formation
